Test results: ChEMBL document CHEMBL3992559, “Human carbonic anhydrase inhibitory profile of mono- and bis-sulfonamides synthesized via a direct sulfochlorination of 3- and 4-(hetero)arylisoxazol-5-amine scaffolds” (Bioorg Med Chem, 2017)
pKi: −log10 of the molar value.

Legend:
[1] = target: Carbonic anhydrase 4 (Homo sapiens, UniProt P22748); assay: Inhibition of recombinant human carbonic anhydrase-4 assessed as reduction in enzyme-catalyzed hydration activity using CO2 as substrate preincubated for 15 mins followed substrate addition measured after 10 to 100 sec by phenol red dye based stopped flow assay
[2] = target: Carbonic anhydrase 1 (Homo sapiens, UniProt P00915); assay: Inhibition of recombinant human carbonic anhydrase-1 assessed as reduction in enzyme-catalyzed hydration activity using CO2 as substrate preincubated for 15 mins followed substrate addition measured after 10 to 100 sec by phenol red dye based stopped flow assay
[3] = target: Carbonic anhydrase 7 (Homo sapiens, UniProt P43166); assay: Inhibition of recombinant human carbonic anhydrase-7 assessed as reduction in enzyme-catalyzed hydration activity using CO2 as substrate preincubated for 15 mins followed substrate addition measured after 10 to 100 sec by phenol red dye based stopped flow assay
[4] = target: Carbonic anhydrase 2 (Homo sapiens, UniProt P00918); assay: Inhibition of recombinant human carbonic anhydrase-2 assessed as reduction in enzyme-catalyzed hydration activity using CO2 as substrate preincubated for 15 mins followed substrate addition measured after 10 to 100 sec by phenol red dye based stopped flow assay

Measured: pKi

Sequence of Carbonic anhydrase 4 (P22748 whole entry): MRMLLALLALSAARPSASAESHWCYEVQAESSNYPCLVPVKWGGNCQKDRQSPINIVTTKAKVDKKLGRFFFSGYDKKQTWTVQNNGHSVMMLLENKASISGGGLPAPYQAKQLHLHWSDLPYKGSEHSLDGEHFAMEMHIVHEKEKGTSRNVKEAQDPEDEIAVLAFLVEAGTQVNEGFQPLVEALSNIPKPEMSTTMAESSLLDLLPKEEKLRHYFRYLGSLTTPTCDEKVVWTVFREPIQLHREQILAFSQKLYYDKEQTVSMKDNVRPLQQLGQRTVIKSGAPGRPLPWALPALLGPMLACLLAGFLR
Sequence of Carbonic anhydrase 1 (P00915 whole entry): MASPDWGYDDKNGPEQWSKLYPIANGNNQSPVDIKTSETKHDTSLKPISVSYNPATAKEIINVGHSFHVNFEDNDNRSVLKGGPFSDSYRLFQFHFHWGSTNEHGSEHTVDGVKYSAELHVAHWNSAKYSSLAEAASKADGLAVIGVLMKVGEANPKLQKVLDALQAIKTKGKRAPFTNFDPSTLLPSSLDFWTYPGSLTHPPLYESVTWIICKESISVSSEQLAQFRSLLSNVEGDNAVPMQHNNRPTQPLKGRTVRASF
Sequence of Carbonic anhydrase 7 (P43166 whole entry): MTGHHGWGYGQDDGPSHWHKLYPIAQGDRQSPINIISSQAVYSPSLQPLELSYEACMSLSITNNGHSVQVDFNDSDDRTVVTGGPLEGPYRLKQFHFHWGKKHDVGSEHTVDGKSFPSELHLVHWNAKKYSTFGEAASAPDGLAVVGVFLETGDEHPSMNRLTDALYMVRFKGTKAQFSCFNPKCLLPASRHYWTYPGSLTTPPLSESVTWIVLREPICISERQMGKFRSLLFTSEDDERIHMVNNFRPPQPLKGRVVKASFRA

CC(=O)Nc1cc(-c2cc(S(N)(=O)=O)c(C)s2)no1
< 5.00: [1] | [2] | [3]

COc1ccc(S(N)(=O)=O)c(-c2c(C)noc2NC(C)=O)c1
< 5.00: all assays above

COc1ccc(S(N)(=O)=O)c(-c2cc(NC(C)=O)on2)c1
< 5.00: all assays above

COc1ccc(-c2noc(N)c2S(N)(=O)=O)cc1S(N)(=O)=O
< 5.00: [2] | [3]

COc1ccc(S(N)(=O)=O)c(-c2noc(N)c2S(N)(=O)=O)c1
< 5.00: [1] | [2] | [3]

CC(=O)Nc1onc(C)c1-c1ccc(S(N)(=O)=O)c(C)c1
< 5.00: [1]

CC(=O)Nc1cc(-c2ccc(C)c(S(N)(=O)=O)c2)no1
< 5.00: [1] | [2]

COc1ccc(-c2c(C)noc2NC(C)=O)cc1S(N)(=O)=O
< 5.00: all assays above

COc1ccc(-c2cc(NC(C)=O)on2)cc1S(N)(=O)=O
< 5.00: all assays above
